Measured values published in patent US20220389061A1, “IMMUNOMODULATORS” (priority 2019, published 2022).
Starred links: 1 amine or outer side, 2 acyl side, 3 side chain; linkers in the order of their positions; H or OH if unused. Positions of bridges follow the written chain, without caps; N, C: chain ends. Non-standard residues stand in square brackets, D forms with d. Residues, ends and D or L forms follow the SMILES beside them. Groups on a side chain read outwards from the residue. *: point of attachment. Trp(1-CH2CO2Me) = COC(=O)Cn1cc(C[C@H](N)C(=O)O)c2ccccc21; Trp(1-CH2COOH) = N[C@@H](Cc1cn(CC(=O)O)c2ccccc12)C(=O)O; X24 = COc1cc(NC(=S)*)ccc1-n1cnc(C)n1; X1 = S=C(Nc1ccc2c(c1)Cc1ccccc1-2)*; 2Naphthoyl = O=C(c1ccc2ccccc2c1)*; X31 = S=C(Nc1cccc2c(Cl)c[nH]c12)*; Hyp = O=C(O)[C@@H]1C[C@@H](O)CN1; X29 = c1ccc(Oc2ccc(N*)cc2)cc1; X42 = S=C(Nc1ccc2nccnc2c1Br)*; X55 = COc1cc(NC(=S)*)cc(OC)c1; NMeNle = CCCC[C@H](NC)C(=O)O; X64 = COc1cc(OC)c(N*)cc1Cl; X82 = S=C(Nc1cccc2nsnc12)*; NMeA = CN[C@@H](C)C(=O)O; Dab = NCC[C@H](N)C(=O)O; X76 = Fc1cc(N*)cc(F)c1F; Dap = NC[C@H](N)C(=O)O; CO = O=C([*:1])[*:2]

Molecular target: T1, PD-1/PD-L1 (Homo sapiens, UniProt Q9NZQ7)
T1 construct: TVMV protease site linker (C); made in house; host or cells: HEK293T cells
T1 sequence (Q9NZQ7 18-239): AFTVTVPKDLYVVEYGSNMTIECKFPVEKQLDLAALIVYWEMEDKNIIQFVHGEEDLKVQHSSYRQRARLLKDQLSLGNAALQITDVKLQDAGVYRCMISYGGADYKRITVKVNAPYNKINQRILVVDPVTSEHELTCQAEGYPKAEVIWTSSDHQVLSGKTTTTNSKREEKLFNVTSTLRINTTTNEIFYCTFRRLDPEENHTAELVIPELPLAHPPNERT
Assay: PD-1/PD-L1 Homogenous Time-Resolved Fluorescence (HTRF) binding assay
Details: PD-L1-His 10 nM pre-incubated with inhibitor, PD-1-Ig 20 nM; read-out: HTRF IC50
In short: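 HTRF read-out using europium cryptate anti-Ig (1 nM) and APC anti-His (20 nM) on extracellular-domain fusion proteins in dPBS/0.1% BSA/0.05% Tween-20. Inhibitor first incubated 15 min with 10 nM PD-L1-His, followed by 20 nM PD-1-Ig for another 15 min.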

IC50	Structure (SMILES)
1.5 nM	CCCC[C@H]1C(=O)N(C)[C@@H](CCCC)C(=O)N[C@@H](CC(C)C)C(=O)N[C@H](C(=O)NCC(N)=O)CSCC(=O)N[C@@H](Cc2ccc(O)cc2)C(=O)N(C)[C@@H](C)C(=O)N[C@@H](CC(N)=O)C(=O)N2CCC[C@H]2C(=O)N[C@@H](CNC(=O)Nc2cc(Cl)c(OC)cc2OC)C(=O)N[C@@H](CC(C)C)C(=O)N2C[C@H](O)C[C@H]2C(=O)N[C@@H](Cc2c[nH]c3ccccc23)C(=O)N[C@@H](CCNC(=O)Nc2cc(Cl)c(OC)cc2OC)C(=O)N[C@@H](Cc2cn(CC(=O)O)c3ccccc23)C(=O)N1C [Example 1082] ({CH2CO}-Y[NMeA]NP[Dap]([CO-X64])L[Hyp]W[Dab]([CO-X64])[Trp(1-CH2COOH)][NMeNle][NMeNle]LCG-NH2; thioether N-14)
3.7 nM	CCCC[C@H]1C(=O)N(C)[C@@H](CCCC)C(=O)N[C@@H](CC(C)C)C(=O)N[C@H](C(=O)NCC(N)=O)CSCC(=O)N[C@@H](Cc2ccc(O)cc2)C(=O)N(C)[C@@H](C)C(=O)N[C@@H](CC(N)=O)C(=O)N2CCC[C@H]2C(=O)N[C@@H](CNC(=S)Nc2ccc3c(c2)Cc2ccccc2-3)C(=O)N[C@@H](CC(C)C)C(=O)N2C[C@H](O)C[C@H]2C(=O)N[C@@H](Cc2c[nH]c3ccccc23)C(=O)N[C@@H](CCN)C(=O)N[C@@H](Cc2cn(CC(=O)O)c3ccccc23)C(=O)N1C [Example 2010] ({CH2CO}-Y[NMeA]NP[Dap](X1)L[Hyp]W[Dab][Trp(1-CH2COOH)][NMeNle][NMeNle]LCG-NH2; thioether N-14)
3.1 nM	CCCC[C@H]1C(=O)N(C)[C@@H](CCCC)C(=O)N[C@@H](CC(C)C)C(=O)N[C@H](C(=O)NCC(N)=O)CSCC(=O)N[C@@H](Cc2ccc(O)cc2)C(=O)N(C)[C@@H](C)C(=O)N[C@@H](CC(N)=O)C(=O)N2CCC[C@H]2C(=O)N[C@@H](CNC(=S)Nc2cc(OC)cc(OC)c2)C(=O)N[C@@H](CC(C)C)C(=O)N2C[C@H](O)C[C@H]2C(=O)N[C@@H](Cc2c[nH]c3ccccc23)C(=O)N[C@@H](CCN)C(=O)N[C@@H](Cc2cn(CC(=O)O)c3ccccc23)C(=O)N1C [Example 1098] ({CH2CO}-Y[NMeA]NP[Dap](X55)L[Hyp]W[Dab][Trp(1-CH2COOH)][NMeNle][NMeNle]LCG-NH2; thioether N-14)
3.5 nM	CCCC[C@H]1C(=O)N(C)[C@@H](CCCC)C(=O)N[C@@H](CC(C)C)C(=O)N[C@H](C(=O)NCC(N)=O)CSCC(=O)N[C@@H](Cc2ccc(O)cc2)C(=O)N(C)[C@@H](C)C(=O)N[C@@H](CC(N)=O)C(=O)N2CCC[C@H]2C(=O)N[C@@H](CNC(=S)Nc2ccc(-n3cnc(C)n3)c(OC)c2)C(=O)N[C@@H](CC(C)C)C(=O)N2C[C@H](O)C[C@H]2C(=O)N[C@@H](Cc2c[nH]c3ccccc23)C(=O)N[C@@H](CCN)C(=O)N[C@@H](Cc2cn(CC(=O)O)c3ccccc23)C(=O)N1C [Example 1054] ({CH2CO}-Y[NMeA]NP[Dap](X24)L[Hyp]W[Dab][Trp(1-CH2COOH)][NMeNle][NMeNle]LCG-NH2; thioether N-14)
5.8 nM	CCCC[C@H]1C(=O)N(C)[C@@H](CCCC)C(=O)N[C@@H](CC(C)C)C(=O)N[C@H](C(=O)NCC(N)=O)CSCC(=O)N[C@@H](Cc2ccc(O)cc2)C(=O)N(C)[C@@H](C)C(=O)N[C@@H](CC(N)=O)C(=O)N2CCC[C@H]2C(=O)N[C@@H](CNC(=S)Nc2ccc3nccnc3c2Br)C(=O)N[C@@H](CC(C)C)C(=O)N2C[C@H](O)C[C@H]2C(=O)N[C@@H](Cc2c[nH]c3ccccc23)C(=O)N[C@@H](CCN)C(=O)N[C@@H](Cc2cn(CC(=O)O)c3ccccc23)C(=O)N1C [Example 3047] ({CH2CO}-Y[NMeA]NP[Dap](X42)L[Hyp]W[Dab][Trp(1-CH2COOH)][NMeNle][NMeNle]LCG-NH2; thioether N-14)
0.6 nM	CCCC[C@H]1C(=O)N(C)[C@@H](CCCC)C(=O)N[C@@H](CC(C)C)C(=O)N[C@H](C(=O)NCC(N)=O)CSCC(=O)N[C@@H](Cc2ccc(O)cc2)C(=O)N(C)[C@@H](C)C(=O)N[C@@H](CC(N)=O)C(=O)N2CCC[C@H]2C(=O)N[C@@H](CNC(=S)Nc2cccc3nsnc23)C(=O)N[C@@H](CC(C)C)C(=O)N2C[C@H](O)C[C@H]2C(=O)N[C@@H](Cc2c[nH]c3ccccc23)C(=O)N[C@@H](CCN)C(=O)N[C@@H](Cc2cn(CC(=O)O)c3ccccc23)C(=O)N1C [Example 3016] ({CH2CO}-Y[NMeA]NP[Dap](X82)L[Hyp]W[Dab][Trp(1-CH2COOH)][NMeNle][NMeNle]LCG-NH2; thioether N-14)
3.3 nM	CCCC[C@H]1C(=O)N(C)[C@@H](CCCC)C(=O)N[C@@H](CC(C)C)C(=O)N[C@H](C(=O)NCC(N)=O)CSCC(=O)N[C@@H](Cc2ccc(O)cc2)C(=O)N(C)[C@@H](C)C(=O)N[C@@H](CC(N)=O)C(=O)N2CCC[C@H]2C(=O)N[C@@H](CNC(=S)Nc2cccc3c(Cl)c[nH]c23)C(=O)N[C@@H](CC(C)C)C(=O)N2C[C@H](O)C[C@H]2C(=O)N[C@@H](Cc2c[nH]c3ccccc23)C(=O)N[C@@H](CCNC(=S)Nc2cccc3c(Cl)c[nH]c23)C(=O)N[C@@H](Cc2cn(CC(=O)O)c3ccccc23)C(=O)N1C [Example 3019] ({CH2CO}-Y[NMeA]NP[Dap](X31)L[Hyp]W[Dab](X31)[Trp(1-CH2COOH)][NMeNle][NMeNle]LCG-NH2; thioether N-14)
4.8 nM	CCCC[C@H]1C(=O)N(C)[C@@H](CCCC)C(=O)N[C@@H](CC(C)C)C(=O)N[C@H](C(=O)NCC(N)=O)CSCC(=O)N[C@@H](Cc2ccc(O)cc2)C(=O)N(C)[C@@H](C)C(=O)N[C@@H](CC(N)=O)C(=O)N2CCC[C@H]2C(=O)N[C@@H](CNC(=O)Nc2cc(F)c(F)c(F)c2)C(=O)N[C@@H](CC(C)C)C(=O)N2C[C@H](O)C[C@H]2C(=O)N[C@@H](Cc2c[nH]c3ccccc23)C(=O)N[C@@H](CCNC(=O)Nc2cc(F)c(F)c(F)c2)C(=O)N[C@@H](Cc2cn(CC(=O)O)c3ccccc23)C(=O)N1C [Example 1012] ({CH2CO}-Y[NMeA]NP[Dap]([CO-X76])L[Hyp]W[Dab]([CO-X76])[Trp(1-CH2COOH)][NMeNle][NMeNle]LCG-NH2; thioether N-14)

Structure (SMILES)	IC50
CCCC[C@H]1C(=O)N(C)[C@@H](CCCC)C(=O)N[C@@H](CC(C)C)C(=O)N[C@H](C(=O)NCC(N)=O)CSCC(=O)N[C@@H](Cc2ccc(O)cc2)C(=O)N(C)[C@@H](C)C(=O)N[C@@H](CC(N)=O)C(=O)N2CCC[C@H]2C(=O)N[C@@H](CNC(=O)c2ccc3ccccc3c2)C(=O)N[C@@H](CC(C)C)C(=O)N2C[C@H](O)C[C@H]2C(=O)N[C@@H](Cc2c[nH]c3ccccc23)C(=O)N[C@@H](CCNC(=O)c2ccc3ccccc3c2)C(=O)N[C@@H](Cc2cn(CC(=O)OC)c3ccccc23)C(=O)N1C [Example 3009] ({CH2CO}-Y[NMeA]NP[Dap](2Naphthoyl)L[Hyp]W[Dab](2Naphthoyl)[Trp(1-CH2CO2Me)][NMeNle][NMeNle]LCG-NH2; thioether N-14)	9 nM
CCCC[C@H]1C(=O)N(C)[C@@H](CCCC)C(=O)N[C@@H](CC(C)C)C(=O)N[C@H](C(=O)NCC(N)=O)CSCC(=O)N[C@@H](Cc2ccc(O)cc2)C(=O)N(C)[C@@H](C)C(=O)N[C@@H](CC(N)=O)C(=O)N2CCC[C@H]2C(=O)N[C@@H](CNC(=O)Nc2ccc(Oc3ccccc3)cc2)C(=O)N[C@@H](CC(C)C)C(=O)N2C[C@H](O)C[C@H]2C(=O)N[C@@H](Cc2c[nH]c3ccccc23)C(=O)N[C@@H](CCNC(=O)Nc2ccc(Oc3ccccc3)cc2)C(=O)N[C@@H](Cc2cn(CC(=O)O)c3ccccc23)C(=O)N1C [Example 1023] ({CH2CO}-Y[NMeA]NP[Dap]([CO-X29])L[Hyp]W[Dab]([CO-X29])[Trp(1-CH2COOH)][NMeNle][NMeNle]LCG-NH2; thioether N-14)	32 nM
